Source: PMC5601071 (Frontiers in Pharmacology, 2017)
Where two headings read alike, the source gives them in different places. Residues, ends and D or L forms follow the SMILES beside them. *: point of attachment. FITC = O=C1OC2(c3ccc(O)cc3Oc3cc(O)ccc32)c2ccc(NC(=S)*)cc21; Biotin = O=C1N[C@H]2[C@H](CS[C@H]2CCCCC(=O)*)N1; Palmitoyl = CCCCCCCCCCCCCCCC(=O)*

Assays:
[1] = target: T1, TREK-1 channel (hTREK-1/HEK cells) (Homo sapiens, UniProt O95069); settings: ref Mazella et al., 2010, Moha ou Maati et al., 2011, cited from earlier work
T1 construct: expressed in transfected cells
T1 sequence (O95069 1-426): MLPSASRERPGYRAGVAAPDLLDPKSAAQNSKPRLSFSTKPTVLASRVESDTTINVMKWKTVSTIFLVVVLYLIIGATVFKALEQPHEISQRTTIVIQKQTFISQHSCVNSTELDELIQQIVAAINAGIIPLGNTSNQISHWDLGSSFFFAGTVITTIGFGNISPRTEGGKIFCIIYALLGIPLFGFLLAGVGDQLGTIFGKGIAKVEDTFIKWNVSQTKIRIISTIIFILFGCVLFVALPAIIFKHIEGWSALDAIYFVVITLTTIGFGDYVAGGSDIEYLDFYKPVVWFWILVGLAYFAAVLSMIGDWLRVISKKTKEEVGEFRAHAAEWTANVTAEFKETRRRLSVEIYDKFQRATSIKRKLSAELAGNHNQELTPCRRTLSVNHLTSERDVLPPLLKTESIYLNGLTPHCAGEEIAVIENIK
Source text: Depression is a devastating mental disorder that affects 20% of the population worldwide. Despite their proven efficacy, antidepressants present a delayed onset of action and serious adverse effects. Seven years ago, we described spadin (PE 12-28) as a promising endogenous peptide with antidepressant activity. Spadin specifically blocks the TREK-1 channel. […] In order to improve in vivo spadin stability and bioavailability, we screened spadin analogs and derivatives. From the study of spadin blood deg ... || Depression is one of the most common mood disorders that represents a heavy economic burden in industrialized countries (Smith, [2014]). Severe depression affects 2–5% of US citizens and up to 20% of the population suffer from mild depression (Nestler et al., [2002]; Maletic et al., [2007]; Krishnan and Nestler, [2008]; Kessler et al., [2012]). Depression is a complex syndrome with a variety of causes mostly genetic and environmental (Nestler et al., [2002]).

[2] = target: T1, TREK-1 channel (hTREK-1/HEK cells); experiment: TREK-1 current inhibition, whole-cell patch-clamp on hTREK-1/HEK cell line; assay type: cell-based
Description: The human TREK-1/HEK cell line (Moha ou Maati et al., [2011]) and the native HEK293 cell line were maintained in Dulbecco's Modified Eagle's Medium (DMEM) supplemented with 10% (v/v) heat-inactivated fetal bovine serum, 1% (v/v) penicillin-streptomycin, 1% Glutamax. For the hTREK-1/HEK cells, 0.5 mg/ml G418 were added to the medium.
Cells were incubated in a humidified atmosphere containing 5% CO2. For electrophysiological measurements, cells were plated at a density of 20,000 cells per 35 mm dish.
Cells from the hTREK-1/HEK cell line were seeded at a density of 20,000 cells/35 mm dish. Electrophysiological recordings were performed 24–48 h after plating using the whole-cell configuration of patch-clamp technique. TREK-1 currents (ITREK−1) were recorded using RK400 patch-clamp amplifier (Axon Instrument, USA). They were low-pass filtered at 3 kHz and digitized at 10 kHz using a 12-bit analog-to-digital converter digidata (1322 series, Axon Instrument, USA). ITREK−1amplitudes were expressed as current densities [current amplitude (pA)/membrane capacitance (pF)]. The results were expressed as mean ± SEM (standard error of the mean).
Cells were continuously perfused using an external bath solution containing in mM: 150 NaCl, 5 KCl, 3 MgCl2, 1 CaCl2, and 10 HEPES. The bath solution was initially adjusted to pH 7.4 with NaOH. The intra-pipette solution contained in mM: 155 KCl, 3 MgCl2, 5 EGTA, and 10 HEPES adjusted to pH 7.2 with KOH. In order to measure ITREK−1, a cocktail of potassium channel blockers was added to the bath solution. This cocktail contained: 3 mM 4-AP (4-aminopyridine), 10 mM TEA (tetraethylammonium), 10 μM Glibenclamide, 100 nM Apamin, and 50 nM Charybdotoxin. Data acquisition was carried out using a computer (Dell Pentium) with pClamp software (Axon Instrument, USA). Whole-cell currents were generated by running a pulse or ramp protocol every 5 s from −100 to +60 mV with a holding potential maintained at −80 mV. To evaluate the inhibitory effect on TREK-1 channels of shortened spadin analogs compared with spadin, cells were first activated by 10 μM arachidonic acid (AA). Dose-response curves were realized to compare spadin-analog effects with spadin using Origin 8.6 (Northampton, MA, USA).
Patch-clamp recording data were analyzed using Clampfit (Molecular Devices, USA). I = f(V) curves were obtained from −100 to +60 mV ramp. Data were presented as mean ± SEM.

[3] = In vitro degradation / half-life time in serum; assay type: in vitro ADME, mouse; settings: for time of maximal appearance of degradation peak in serum: spadin incubated with mouse serum, HPLC peaks identified by mass spectroscopy
Description: […] Incubations were stopped by direct acidification (5 μl of 2.5 M HCl), loaded in C-18 sepack cartridges, lyophilized, resuspended in 20% acetonitrile before loading onto HPLC for analysis of PE degradation/stability. Elutions of HPLC products were carried out by means of a 50-min linear gradient of acetonitrile from 20 to 70% at a flow rate of 1 ml/min. The amount of the intact PE for each incubation time was expressed as the percent of the initial amount of spadin.

mouse serum = settings: 37°C (Figure 1 legend), room temperature, up to 60 min
[4] = HEK293, peptide 100 nM, TREK-1 first activated with 10 μM arachidonic acid (AA), current density at 0 mV, hTREK-1/HEK cells, mean ± SEM, n = cells, read-out: % of TREK-1 inhibition

For `CNCCC(Oc1ccc(C(F)(F)F)cc1)c1ccccc1` (centres unmarked) [fluoxetine], the IC50 ([1]; read-out: IC50 for TREK-1 block (fluoxetine)) is listed as roughly 6000 nM.
With `CC[C@H](C)[C@H](NC(=O)[C@@H]1CCCN1C(=O)CNC(=O)[C@H](CO)NC(=O)[C@H](Cc1c[nH]c2ccccc12)NC(=O)[C@H](CCCNC(=N)N)NC(=O)[C@@H]1CCCN1C(=O)[C@H](CC(C)C)NC(=O)[C@@H]1CCCN1C(=O)[C@H](C)N)C(=O)NCC(=O)N[C@H](C(=O)N[C@@H](CO)C(=O)N[C@@H](Cc1c[nH]c2ccccc12)C(=O)NCC(=O)N[C@@H](CC(C)C)C(=O)N[C@@H](CCCNC(=N)N)C(=O)O)C(C)C` [PE 12-28 (Spadin), reference compound] (H-APLPRWSGPIGVSWGLR-OH) the inhibition at 0.1 µM [2, 4] was 44.4 ± 8.82%, the IC50 ([2]; dose-response curves at 0 mV, hTREK-1/HEK cells, activated by 10 μM AA) was 40 nM and the “spadin remaining after incubation with serum” value ([3]; mouse serum, 30 min, 37°C (method b20: 10 nmoles in 200 μl serum, room temperature), HPLC) was “disappearance of almost all spadin”. The IC50 ([1]; Moha Ou Maati et al., 2012, read-out: IC50 for TREK-1 block (spadin)) was 40 to 60 nM.
Compound `CCCCCCCCCCCCCCCC(=O)NCC(=O)N[C@H](C(=O)N[C@@H](CO)C(=O)N[C@@H](Cc1c[nH]c2ccccc12)C(=O)NCC(=O)N[C@@H](CC(C)C)C(=O)N[C@@H](CCCNC(=N)N)C(=O)O)C(C)C` [Palmitoyl-PE 22-28] (Palmitoyl-GVSWGLR-OH) has an inhibition at 0.1 µM ([2]; HEK293, read-out: % of TREK-1 inhibition) of 26.7 ± 16.4%.
In the case of APLPRWSGPIGVSWGLR, the fragment found (mouse serum) is reported as “PE 12-27”.
Compound `CC(C)C[C@H](NC(=O)CNC(=O)[C@H](Cc1c[nH]c2ccccc12)NC(=O)[C@H](CO)NC(=O)[C@@H](NC(=O)[C@H](C)NC(=O)CCCC[C@@H]1SC[C@@H]2NC(=O)N[C@@H]21)C(C)C)C(=O)N[C@@H](CCCNC(=N)N)C(=O)O` [Biotinylated G/A-PE 22-28] (Biotin-AVSWGLR-OH) has an inhibition at 0.1 µM [2, 4] of 46.1 ± 7.74%.
For `CC[C@H](C)[C@H](NC(=O)[C@@H]1CCCN1C(=O)CNC(=O)[C@H](CO)NC(=O)[C@H](Cc1c[nH]c2ccccc12)NC(=O)[C@H](CCCNC(=N)N)NC(=O)[C@@H]1CCCN1C(=O)[C@H](CC(C)C)NC(=O)[C@@H]1CCCN1C(=O)[C@H](C)N)C(=O)NCC(=O)N[C@H](C(=O)N[C@@H](CO)C(=O)N[C@@H](Cc1c[nH]c2ccccc12)C(=O)NCC(=O)N[C@@H](CC(C)C)C(=O)O)C(C)C` [PE 12-27] (H-APLPRWSGPIGVSWGL-OH), the inhibition at 0.1 µM [2, 4] was 28.4 ± 9.9% and the “time of maximal appearance of degradation peak in serum” value [3] was 30 min.
In the case of `CC(C)[C@H](NC(=O)CN)C(=O)N[C@@H](CO)C(=O)N[C@@H](Cc1c[nH]c2ccccc12)C(=O)O` [PE 22-25] (H-GVSW-OH), the inhibition at 0.1 µM [2, 4] is reported as 36 ± 17.5%.
For `CCOC(=O)[C@H](CCCNC(=N)N)NC(=O)[C@H](CC(C)C)NC(=O)CNC(=O)[C@H](Cc1c[nH]c2ccccc12)NC(=O)[C@H](CO)NC(=O)[C@@H](NC(=O)CN)C(C)C` [PE 22-28-O-Ethyl] (H-GVSWGLR-OEt), the inhibition at 0.1 µM [2, 4] was 41.4 ± 11.5%.
With `CC[C@H](C)[C@H](NC(=O)[C@@H]1CCCN1C(=O)CNC(=O)[C@H](CO)NC(=O)[C@H](Cc1c[nH]c2ccccc12)NC(=O)[C@H](CCCNC(=N)N)NC(=O)[C@@H]1CCCN1C(=O)[C@@H](N)CC(C)C)C(=O)NCC(=O)N[C@H](C(=O)N[C@@H](CO)C(=O)N[C@@H](Cc1c[nH]c2ccccc12)C(=O)O)C(C)C` [PE 14-25] (H-LPRWSGPIGVSW-OH) the inhibition at 0.1 µM [2, 4] was -14.7 ± 10.6%, the “current density measured at 0 mV compared with AA activity alone (100%)” value ([2]; peptide 100 nM after 10 μM AA, n = 8, p = 0.09) was 114.7 ± 10.6% and the “time of maximal appearance of degradation peak in serum” value [3] was 15 min.
`CC(C)C[C@H](NC(=O)CNC(=O)[C@H](Cc1c[nH]c2ccccc12)NC(=O)[C@H](CO)NC(=O)[C@@H](NC(=O)CNC(=S)Nc1ccc2c(c1)C(=O)OC21c2ccc(O)cc2Oc2cc(O)ccc21)C(C)C)C(=O)N[C@@H](CCCNC(=N)N)C(=O)O` [FITC-PE 22-28] ({FITC}-GVSWGLR-OH) showed an inhibition at 0.1 µM [2, 4] of 22.1 ± 12.6%.
For `CC[C@H](C)[C@H](NC(=O)[C@@H]1CCCN1C(=O)CCCC[C@@H]1SC[C@@H]2NC(=O)N[C@@H]21)C(=O)NCC(=O)N[C@H](C(=O)N[C@@H](CO)C(=O)N[C@@H](Cc1c[nH]c2ccccc12)C(=O)NCC(=O)N[C@@H](CC(C)C)C(=O)N[C@@H](CCCNC(=N)N)C(=O)O)C(C)C` [Biotinylated-PI-PE 22-28] (Biotin-PIGVSWGLR-OH), the inhibition at 0.1 µM [2, 4] was 49.1 ± 7.45%.
